Measurements as given in US20250281606A1 (AKSEERA PHARMA CORP., priority 2020, published 2025).
“And” between values parts separate entries of the source, which are not always exact repeats. Equal entries are not always repeated. Where two headings read alike, the source gives them in different places.

How the values were obtained:
[1] = test system: IgG and IgM antibody titres (serum); format: in vivo, Balb/c mice
[2] = test system: IgG and IgM antibody titres (serum); assay: IgG and IgM antibody titres in mice vaccinated with Covishield, with or without oral CBD; conditions: for IgG, serum (CLIA, EIA) / IgM, serum (CLIA, EIA): individual mice (F/M); for augmentation of overall IgG response to vaccine by CBD / augmentation of overall IgM response to vaccine by CBD: CBD throughout or until vaccination, same magnitude, vs vaccine alone; for time after vaccine by which IgG and IgM responses were significantly elevated compared to mice not given CBD: CBD throughout the study or just until vaccine
[3] = 0 Day, group GII (CS): Covishild + CBD 102.5 mg/kg/d gavage day -7 to 28
[4] = 0 Day, group GIII (CS): Covishild + CBD 102.5 mg/kg/d gavage day -7 to 0, then discontinued
[5] = 7th Day, group GII (CS): Covishild + CBD 102.5 mg/kg/d gavage day -7 to 28
[6] = 7th Day, group GIII (CS): Covishild + CBD 102.5 mg/kg/d gavage day -7 to 0, then discontinued
[7] = 14 Day, group GII (CS): Covishild + CBD 102.5 mg/kg/d gavage day -7 to 28
[8] = 14 Day, group GIII (CS): Covishild + CBD 102.5 mg/kg/d gavage day -7 to 0, then discontinued

SMILES: C=C(C)[C@@H]1CCC(C)=C[C@H]1c1c(O)cc(CCCCC)cc1O [CBD Formulation, Cannabidiol]
- IgG, serum (CLIA, EIA) ([1]; 0 Day): 7.4 IU/mL and 6.8 IU/mL and 7.2 IU/mL and 7.1 IU/mL and 9.2 IU/mL and 7.5 IU/mL and 8.21 IU/mL
- IgG, serum (CLIA, EIA) ([1]; 14 Day): 7.2 IU/mL and 6.4 IU/mL and 7.1 IU/mL and 7.4 IU/mL and 6 IU/mL and 9.1 IU/mL and 7 IU/mL and 7.3 IU/mL
- IgM, serum (CLIA, EIA) ([1]; 14 Day): 9.3 AU/mL and 9.8 AU/mL and 10.2 AU/mL and 10.3 AU/mL and 9 AU/mL and 10.4 AU/mL and 9.2 AU/mL
- IgG, serum (CLIA, EIA) ([1]; 21 Day): 7.3 IU/mL and 7.1 IU/mL and 7.5 IU/mL and 7.2 IU/mL and 9.1 IU/mL and 7 IU/mL and 7.4 IU/mL
- IgG, serum (CLIA, EIA) ([1]; mouse, in vivo): 7.2 IU/mL and 7.1 IU/mL and 7.3 IU/mL and 6.9 IU/mL and 9.2 IU/mL and 7.5 IU/mL and 8.21 IU/mL
- IgM, serum (CLIA, EIA) ([1]; mouse, in vivo): 10.2 AU/mL and 9.8 AU/mL and 10 AU/mL and 10.1 AU/mL and 10.3 AU/mL
- augmentation by CBD of the response to Covaxin compared with Covishield ([1]; mouse, in vivo): tended to be less
- day at which a rise in IgM was seen ([1]; mouse, in vivo): 7 days
- day at which a significant rise in IgG and IgM was apparent ([1]; mouse, in vivo): 7 days
- day by which a rise in IgG was seen ([1]; mouse, in vivo): ≤ 14 days
- overall IgM response to Covaxin versus Covaxin alone ([1]; mouse, in vivo): augmented
- IgG, serum (CLIA, EIA) [2, 3]: 7.4 IU/mL and 7.8 IU/mL and 7.1 IU/mL (2×) and 6.8 IU/mL and 6.4 IU/mL
- IgM, serum (CLIA, EIA) [2, 3]: 9.2 AU/mL (2×) and 8.2 AU/mL and 10.1 AU/mL and 9.4 AU/mL and 8.8 AU/mL
- IgG, serum (CLIA, EIA) [2, 4]: 7.5 IU/mL and 6.8 IU/mL (2×) and 6.5 IU/mL and 7.21 IU/mL and 7.2 IU/mL
- IgM, serum (CLIA, EIA) [2, 4]: 9.4 AU/mL and 9.3 AU/mL (3×) and 9.2 AU/mL and 9.1 AU/mL
- IgG, serum (CLIA, EIA) [2, 5]: 7.4 IU/mL and 7.5 IU/mL and 8.2 IU/mL and 7.3 IU/mL (2×) and 7.8 IU/mL
- IgM, serum (CLIA, EIA) [2, 5]: 10.2 AU/mL and 8.2 AU/mL and 10.11 AU/mL and 10.5 AU/mL and 10.4 AU/mL
- IgG, serum (CLIA, EIA) [2, 6]: 7.4 IU/mL and 6.9 IU/mL and 7.3 IU/mL (2×) and 7.2 IU/mL and 7.1 IU/mL
- IgM, serum (CLIA, EIA) [2, 6]: 9.2 AU/mL and 9.6 AU/mL and 10.1 AU/mL and 10.2 AU/mL and 10.3 AU/mL
- IgG, serum (CLIA, EIA) [2, 7]: 7.5 IU/mL and 7.8 IU/mL (3×) and 7.6 IU/mL and 8.2 IU/mL
- IgM, serum (CLIA, EIA) [2, 7]: 10.5 AU/mL and 10.15 AU/mL and 10.52 AU/mL
- IgG, serum (CLIA, EIA) [2, 8]: 7.5 IU/mL (2×) and 7.6 IU/mL and 7.3 IU/mL and 7.8 IU/mL and 7.9 IU/mL
- IgM, serum (CLIA, EIA) [2, 8]: 10.1 AU/mL and 10.5 AU/mL and 10.3 AU/mL (2×)
- IgG, serum (CLIA, EIA) ([2]; 21 Day, group GII (CS): Covishild + CBD 102.5 mg/kg/d gavage day -7 to 28): 7.8 IU/mL (2×) and 7.1 IU/mL and 7.5 IU/mL and 7.9 IU/mL and 8.1 IU/mL
- IgG, serum (CLIA, EIA) ([2]; 21 Day, group GIII (CS): Covishild + CBD 102.5 mg/kg/d gavage day -7 to 0, then discontinued): 7.6 IU/mL (2×) and 8.1 IU/mL (3×) and 7.8 IU/mL
- augmentation of overall IgG response to vaccine by CBD ([2]; FIG. 2C, average overall response over 28 days): 15%
- augmentation of overall IgM response to vaccine by CBD ([2]; FIG. 2D, average overall response over 28 days): 25%
- augmentation of overall IgG response to vaccine by CBD ([2]; FIG. 2I, AUC over 28 days, female mice): 13%
- augmentation of overall IgM response to vaccine by CBD ([2]; FIG. 2J, AUC over 28 days, female mice): 21%
- time after vaccine by which IgG and IgM responses were significantly elevated compared to mice not given CBD ([2]; FIGS. 2E and 2F): ≤ 7 days
- IgG response at day 7 versus vehicle (no CBD) group ([2]; FIGS. 2K and 2L, female mice, CBD given throughout the trial): significantly better IgG response
- time after vaccine by which IgG and IgM responses were significantly elevated compared to mice not given CBD ([2]; FIGS. 2K and 2L, female mice): ≤ 14 days
- course of antibody titres in mice given vaccine plus CBD ([2]; compared with vaccine without CBD, whose titres did not rise, up to day 28): rose and remained elevated until day 28
